Laboratory results reported in PubChem BioAssay (NCI).
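How tested: cells in 96-well plates exposed to compound for 48 hours at five concentrations. TGI: total growth inhibition.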

Key:
Assay in all cases: growth of human tumour cells (NCI), 48 h
HCT-15 colon = system: HCT-15 colon
MCF7 breast = system: MCF7 breast
HOP-92 NSCLC = system: HOP-92 NSCLC
M14 melanoma = system: M14 melanoma
KM12 colon = system: KM12 colon
786-0 renal = system: 786-0 renal
A549 NSCLC = system: A549 NSCLC
UO-31 renal = system: UO-31 renal

Structure (SMILES) | TGI (HCT-15 colon) [µM] | TGI (MCF7 breast) [µM] | TGI (HOP-92 NSCLC) [µM] | TGI (M14 melanoma) [µM] | TGI (KM12 colon) [µM] | TGI (786-0 renal) [µM] | TGI (A549 NSCLC) [µM] | TGI (UO-31 renal) [µM]
Cc1ccc(S(=O)(=O)Nn2c(S)c(C#N)c(-c3ccc([N+](=O)[O-])cc3)c(C#N)c2=O)cc1 | 49.7 | > 100 | > 100 | > 100 | > 100 | 52.2 | > 100 | –
O=C(/C=C/c1ccc(Cl)cc1)c1cccs1 | 49.9 | 15.8 | – | 36.3 | 31.1 | 30 | 83.5 | 31.9
O=C1CC(C(=O)N2CCCCC2)n2c(=O)n(-c3ccccc3)c(=O)n2C1 (stereo not drawn) | > 100 | > 100 | – | > 100 | > 100 | > 100 | > 100 | > 100
CCOc1cc2c(cc1O)/C(=N/NS(=O)(=O)c1ccc(C)cc1)C[C@@H]1[C@@H]2CC[C@]2(C)[C@@H](O)CC[C@@H]12 | > 100 | > 100 | > 100 | > 100 | > 100 | > 100 | > 100 | > 100
COc1ccc(C(=O)N(C(=S)OCCOc2ccccc2)c2ccccc2)cc1 | > 100 | > 100 | 70.4 | > 100 | > 100 | > 100 | > 100 | 29.9
COC(=O)CC(=O)Nc1sccc1S(=O)(=O)c1ccccc1 | > 100 | > 100 | > 100 | > 100 | > 100 | > 100 | > 100 | > 100
CCOP(=O)(OCC)C1=C(c2ccccc2)OC(N)=C(C#N)C1c1ccc(Cl)cc1 (stereo not drawn) | > 100 | > 100 | > 100 | > 100 | > 100 | > 100 | > 100 | > 100
C=C1C(=O)O[C@H]2[C@H]3O[C@@H](C[C@@H]12)[C@@]1(C)CC[C@H](O1)C(C)=CCC[C@H]3C | 3.2 | 3.63 | 3.45 | 3.15 | 3.76 | 2.67 | 6.96 | 2.77
O=C(/C=C/c1ccccc1)CSc1nc2ccc(I)cc2c(=O)n1Cc1ccccc1 | > 100 | > 100 | 55.2 | > 100 | > 100 | 35.9 | > 100 | 0.553
CN(C)CCn1c(=O)c2ccc3c4c(nn3CCN(C)C)c3cc(O)ccc3n(c1=O)c24 | 3.36 | 0.392 | – | 0.846 | 3.5 | 0.424 | 1.54 | 0.675
NNCCc1n[nH]c(=O)n1N | > 100 | > 100 | > 100 | > 100 | > 100 | > 100 | > 100 | > 100
O=C1NC(=O)C(COCc2ccccc2)C2=C1SCCC2 (stereo not drawn) | > 100 | > 100 | > 100 | > 100 | > 100 | > 100 | > 100 | > 100
NC(CCC(=O)O)(CCC(=O)O)CCC(=O)O | > 100 | > 100 | > 100 | > 100 | > 100 | > 100 | > 100 | > 100
CC1=N[C@](C)(C2CC3C=CC2C3=O)COC1=O (stereo partly drawn) | – | > 100 | > 100 | > 100 | > 100 | > 100 | > 100 | > 100
Cc1cc2nc(-c3c(F)cccc3F)n(Cc3c(F)cccc3F)c2cc1C | 27.6 | 57.1 | 30 | 25.2 | 28.6 | 31.8 | 28.1 | 23.3
Oc1ccc(/C=C/c2ccc3cccc(O)c3n2)cc1O | > 100 | 93.7 | > 100 | 7.46 | 33 | 50.9 | 27.8 | 7.71
O=C(CCCN1CCC2(CC1)CC(=O)N(N1CCCCCC1)C2=O)c1ccc(F)cc1 | > 100 | > 100 | – | > 100 | – | 38.1 | > 100 | > 100
COc1ccc(C(=O)/C=C/c2cccnc2)cc1OC | 23.9 | 13 | 26.7 | 26.6 | – | 14.1 | 27.7 | 26.3
c1ccc2cc(CNCCOCCOCCNCc3ccc4ccccc4c3)ccc2c1 | 3.46 | 3.41 | 3.14 | 3.89 | 3.16 | 2.97 | 3.46 | –
NC(CCCCNC(=O)CNC(=O)OCc1ccccc1)C(=O)NC(CCCCNC(=O)CNC(=O)OCc1ccccc1)C(=O)NC(CCCCNC(=O)CNC(=O)OCc1ccccc1)C(=O)NC(CCCCNC(=O)CNC(=O)OCc1ccccc1)C(=O)NC(CCCCNC(=O)CNC(=O)OCc1ccccc1)C(=O)NC(CCCCNC(=O)CNC(=O)OCc1ccccc1)C(=O)O (stereo not drawn) | > 75 | > 75 | – | > 75 | – | > 75 | > 75 | > 75
CC(=O)O[C@H]1CCn2c3c(c(C)c21)C(=O)C(N1CC1)=C(C)C3=O | > 10 | > 10 | – | > 10 | > 10 | > 10 | 7.83 | –
c1ccc(C2OCC(OC3CCCCO3)CO2)cc1 (stereo not drawn) | > 100 | > 100 | > 100 | > 100 | – | > 100 | > 100 | > 100
O=S(=O)(O)c1ccc2c(N=Nc3ccc(F)cc3)c(O)c(S(=O)(=O)O)cc2c1 | > 100 | – | > 100 | > 100 | > 100 | > 100 | > 100 | > 100
COc1cc2c(cc1OC)C(C)N(C)c1c-2c(OC(C)=O)cc2cc(OC)c(OC)cc12 (stereo not drawn) | > 81.2 | 40.2 | – | 28.2 | 34.1 | 62 | > 69.2 | > 92.1
Clc1nc(NCCc2ccccc2)c2ncn(-c3ccccc3)c2n1 | > 100 | 60.8 | – | 49.7 | 51.3 | 31.4 | > 100 | 43.1
